Laboratory results from patent US7759369B2, “Pyridine compounds for the treatment of prostaglandin mediated diseases” (Glaxo Group Limited, priority 2004, dated 2010).
Structures can show the parent of a compound that is named as a salt.

What was measured:
[1] = target: T1, TP receptor (Homo sapiens, UniProt P21731); experiment: human TP calcium mobilisation assay (CHO-K1 cells, U46619, FLIPR); format: cell-based; settings: free bases or sodium salts; read-out: functional pKi, human TP calcium mobilisation assay (converted)
T1 construct: expressed in transfected cells; host or cells: CHO-K1
T1 sequence (P21731 1-343): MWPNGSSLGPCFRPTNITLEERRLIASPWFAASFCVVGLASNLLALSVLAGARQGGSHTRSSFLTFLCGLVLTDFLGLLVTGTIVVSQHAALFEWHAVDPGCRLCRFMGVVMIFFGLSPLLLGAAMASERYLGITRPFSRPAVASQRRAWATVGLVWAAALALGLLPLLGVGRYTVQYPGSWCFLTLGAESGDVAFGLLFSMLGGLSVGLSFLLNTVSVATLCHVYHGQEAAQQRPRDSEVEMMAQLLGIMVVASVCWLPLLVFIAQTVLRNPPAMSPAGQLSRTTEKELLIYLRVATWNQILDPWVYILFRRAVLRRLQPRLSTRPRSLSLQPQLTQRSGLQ
Procedure: To determine if a compound has agonist or antagonist activity at the TP receptor a functional calcium mobilisation assay may be performed. Briefly, the antagonist properties of compounds are assessed by their ability to inhibit the mobilisation of intracellular calcium ([Ca^2+]i) in response to activation of TP receptors by the stable TXA2 mimetic U46619 (9,11-dideoxy-11α,9α-epoxy-methanoprostaglandin F2 α; commercially available from e.g Sigma-Aldrich). Increasing concentrations of antagonist reduce the amount of calcium that a given concentration of U46619 can mobilise. The net effect is to displace the U46619 concentration-effect curve. The amount of calcium produced is assessed using a calcium-sensitive fluorescent dye such as Fluo-4, AM and a suitable instrument such as a Fluorimetric Imaging Plate Reader (FLIPR). Increasing amounts of [Ca^2+]i produced by receptor activation increase the amount of fluorescence produced by the dye and give rise to an increasing signal. The signal may be detected using the FLIPR instrument and the data generated may be analysed with suitable curve-fitting software. The agonist activity of the compounds are determined by their ability to cause an increase in intracellular mobilisation in the absence of U46619.
(§1) The human TP calcium mobilisation assay utilises Chinese hamster ovary-K1 (CHO-K1) cells into which a stable (pCIN; BioTechniques 20 (1996): 102-110) vector containing TP cDNA has previously been transfected. Cells are cultured in suitable flasks containing culture medium such as DMEM:F-12 supplemented with 10% v/v foetal calf serum, 2 mM L-glutamine, 0.25 mg/ml geneticin, 100 μM flurbiprofen and 10 μg/ml puromycin.
(§2) For assay, cells are harvested using a proprietary reagent that dislodges cells such as Versene. Cells are re-suspended in a suitable quantity of fresh culture media for introduction into a 96-well plate. Following incubation for 24 hours at 37° C. the culture media is replaced with a medium containing Fluo-4 and the detergent pluronic acid, and a further incubation takes place. Concentrations of compounds are then added to the plate in order to construct concentration-effect curves. This may be performed on the FLIPR in order to assess the agonist properties of the compounds. Concentrations of U46619 are then added to the plate in order to assess the antagonist properties of the compounds.
The data so generated may be analysed by means of a computerised curve-fitting routine. The concentration of compound that elicits a half-maximal inhibition of the calcium mobilisation induced by U46619 (plC50) may then be estimated, and the percentage activation caused by the compounds directly can be used to determine if there is any agonism present.

[2] = target: T2, EP1 receptors (Homo sapiens, UniProt P34995); experiment: human EP1 calcium mobilisation assay (CHO-K1 cells, PGE2, FLIPR); format: cell-based; set-up: expressed in transfected cells; host or cells: CHO-K1; settings: free bases or sodium salts; averages of a number of experiments; read-out: functional pKi value, human EP1 calcium mobilisation assay (converted)
T2 sequence (P34995 1-402): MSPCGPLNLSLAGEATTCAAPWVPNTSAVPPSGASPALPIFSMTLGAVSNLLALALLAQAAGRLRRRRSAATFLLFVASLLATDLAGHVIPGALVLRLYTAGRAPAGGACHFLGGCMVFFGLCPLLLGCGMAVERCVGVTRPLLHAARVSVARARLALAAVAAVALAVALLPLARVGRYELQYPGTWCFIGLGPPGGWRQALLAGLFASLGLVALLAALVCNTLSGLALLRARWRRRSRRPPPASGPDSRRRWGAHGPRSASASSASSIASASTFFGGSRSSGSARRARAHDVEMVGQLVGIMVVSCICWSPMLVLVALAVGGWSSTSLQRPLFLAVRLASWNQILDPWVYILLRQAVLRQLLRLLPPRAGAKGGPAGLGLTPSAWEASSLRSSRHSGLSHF
Procedure: Briefly, the antagonist properties of compounds are assessed by their ability to inhibit the mobilisation of intracellular calcium ([Ca^2+]i) in response to activation of EP1 or EP3 receptors by the natural agonist hormone prostaglandin E2 (PGE2). Increasing concentrations of antagonist reduce the amount of calcium that a given concentration of PGE2 can mobilise. The net effect is to displace the PGE2 concentration-effect curve to higher concentrations of PGE2. The amount of calcium produced is assessed using a calcium-sensitive fluorescent dye such as Fluo-4, AM and a suitable instrument such as a Fluorimetric Imaging Plate Reader (FLIPR). Increasing amounts of [Ca^2+]i produced by receptor activation increase the amount of fluorescence produced by the dye and give rise to an increasing signal. The signal may be detected using the FLIPR instrument and the data generated may be analysed with suitable curve-fitting software.
as §1, with “human EP1 or EP3” for “human TP”, “assay (hereafter referred to as ‘the calcium assay’)” for “assay”, “containing either EP1 or EP3” for “containing TP”, “10 µg/ml” for “10 μg/ml”
as §2, with “384-well” for “96-well”, “PGE2” for “U46619”
The data so generated may be analysed by means of a computerised curve-fitting routine. The concentration of compound that elicits a half-maximal inhibition of the calcium mobilisation induced by PGE2 (pIC50) may then be estimated.

Compound	Ki [1] [nM]	Ki [2] [nM]
O=C(NS(=O)(=O)c1ccc(Br)cc1)c1cccc(Cc2cc(Cl)ccc2OCc2ccc(Cl)cc2F)n1 [Example 33, N-[(4-Bromophenyl)sulphonyl]-6-[(5-chloro-2-{[(4-chloro-2-fluorophenyl)methyl]oxy}phenyl)-methyl]-2-pyridinecarboxamide]	> 1000	< 1000
O=C(NS(=O)(=O)c1cccc(Br)c1)c1cccc(Cc2cc(Cl)ccc2OCc2ccc(Cl)cc2F)n1 [Example 34, N-[(3-Bromophenyl)sulphonyl]-6-[(5-chloro-2-{[(4-chloro-2-fluorophenyl)methyl]oxy}phenyl)-methyl]-2-pyridinecarboxamide]	≤ 31.6	≤ 31.6
O=C(NS(=O)(=O)c1ccccc1)c1cccc(Cc2cc(Cl)ccc2OCc2ccc(Cl)cc2F)n1 [Example 28, 6-[(5-chloro-2-{[(4-chloro-2-fluorophenyl)methyl]oxy}phenyl)-methyl]-N-(phenylsulphonyl)-2-pyridinecarboxamide]	< 1000	≤ 31.6
Cc1noc(C)c1S(=O)(=O)NC(=O)c1cccc(Cc2cc(Cl)ccc2OCc2ccc(Cl)cc2F)n1 [Example 36, 6-[(5-Chloro-2-{[(4-chloro-2-fluorophenyl)methyl]oxy}-phenyl)methyl]-N-[(3,5-dimethyl-4-isoxazolyl)sulphonyl]-2-pyridinecarboxamide]	< 1000	≤ 31.6
O=C(O)c1cccc(Cc2cc(Cl)ccc2OCC2CCCC2)n1 [Example 14, Sodium 6-({5-chloro-2-[(cyclopentylmethyl)oxy]phenyl}methyl)-2-pyridinecarboxylate]	< 1000	< 1000
Fc1cc(Cl)ccc1COc1ccc(Cl)cc1Cc1cccc(-c2nnn[nH]2)n1 [Example 38, 2-[(5-Chloro-2-{[(4-chloro-2-fluorophenyl)methyl]oxy}phenyl)-methyl]-6-(1H-tetrazol-5-yl)pyridine]	≤ 31.6	≤ 31.6

Continued, values first:

Ki [1] [nM]	Ki [2] [nM]	Compound
< 1000	≤ 31.6	CCCS(=O)(=O)NC(=O)c1cccc(Cc2cc(Cl)ccc2OCc2ccc(Cl)cc2F)n1 [Example 30, 6-[(5-Chloro-2-{[(4-chloro-2-fluorophenyl)methyl]oxy}-phenyl)methyl]-N-(propylsulphonyl)-2-pyridinecarboxamide]
≤ 31.6	≤ 31.6	O=C(O)c1cccc(Cc2cc(Cl)ccc2OCc2ccc(Cl)cc2Cl)n1 [Example 12, Sodium 6-[(5-chloro-2-{[(2,4-dichlororophenyl)methyl]oxy}phenyl)methyl]-2-pyridinecarboxylate]
< 1000	< 1000	O=C(O)c1cccc(Cc2cc(Cl)ccc2OCc2ccc(F)cc2Cl)n1 [Example 11, Sodium 6-[(5-chloro-2-{[(2-chloro-4-fluorophenyl)methyl]oxy}phenyl)methyl]-2-pyridinecarboxylate]
< 1000	< 1000	O=C(O)c1cccc(Cc2cc(Cl)ccc2OCc2cc(F)c(F)cc2F)n1 [Example 10, Sodium 6-[(5-chloro-2-{[(2,4,5-trifluorophenyl)methyl]oxy}phenyl)methyl]-2-pyridinecarboxylate]
< 1000	≤ 31.6	O=C(O)c1cccc(Cc2cc(Cl)ccc2OCc2ccc(F)cc2F)n1 [Example 4, Sodium 6-[(5-chloro-2-{[(2,4-difluorophenyl)methyl]oxy}phenyl)methyl]-2-pyridinecarboxylate]
> 1000	≤ 31.6	CS(=O)(=O)NC(=O)c1cccc(Cc2cc(Cl)ccc2OCc2ccc(Cl)cc2F)n1 [Example 29, 6-[(5-Chloro-2-{[(4-chloro-2-fluorophenyl)methyl]oxy}-phenyl)methyl]-N-(methylsulphonyl)-2-pyridinecarboxamide]
≤ 31.6	≤ 31.6	O=C(O)c1cccc(Cc2cc(Cl)ccc2OCc2ccc(Cl)cc2F)n1 [Example 3, Sodium 6-[(5-chloro-2-{[(4-chloro-2-fluorophenyl)methyl]oxy}phenyl)methyl]-2-pyridinecarboxylate]
≤ 31.6	< 1000	Cc1ccc(C(=O)O)nc1Cc1cc(Cl)ccc1OCc1ccc(Cl)cc1F [Example 39, 6-[(5-Chloro-2-{[(4-chloro-2-fluorophenyl)methyl]oxy}-phenyl)methyl]-5-methyl-2-pyridinecarboxylic acid, sodium salt]
